Test results as given in patent publication US10336711B2, “Prolyl hydroxylase inhibitors” (GlaxoSmithKline, LLC, priority 2006, dated 2019).

Tested on: Hep3B cells
Assay: Epo protein produced by Hep3B cell line using ELISA method
Format: cell-based
Conditions: Homo sapiens, 48 Hours incubation, 100 micromolar the maximum concentration tested
Description: Measure Epo Protein Produced by Hep3B Cell Line Using ELISA Method.
Hep3B cells obtained from the American Type Culture Collection (ATCC) are seeded at 2×10^4 cells/well in Dulbecco's Modified Eagle Medium (DMEM)+10% FBS in 96-well plates. Cells are incubated at 37deg C./5% CO2/90% humidity (standard cell culture incubation conditions). After overnight adherence, medium is removed and replaced with DMEM without serum containing test compound or DMSO negative control. Following 48 Hours incubation, cell culture medium is collected and assayed by ELISA to quantitate Epo protein.

Row | SMILES | EC50 [µM]
1 | CC(C)(C)c1ccc(Cn2c(=O)c(C(=O)NCC(=O)O)c(O)n(-c3ccccc3-c3ccccc3)c2=O)cc1 [Example 31, N-[(1-(2-Biphenylyl)-3-{[4-(1,1-dimethylethyl)phenyl]methyl}-6-hydroxy-2,4-dioxo-1,2,3,4-tetrahydro-5-pyrimidinyl)carbonyl]glycine] | > 100
2 | CC1(C)CCC(C)(C)c2cc(Cn3c(=O)c(C(=O)NCC(=O)O)c(O)n(C4CCCCC4)c3=O)ccc21 [Example 39, N-({1-Cyclohexyl-6-hydroxy-2,4-dioxo-3-[(5,5,8,8-tetramethyl-5,6,7,8-tetrahydro-2-naphthalenyl)methyl]-1,2,3,4-tetrahydro-5-pyrimidinyl}carbonyl)glycine] | > 100
3 | O=C(O)CCCCCn1c(O)c(C(=O)NCC(=O)O)c(=O)n(C2CCCCC2)c1=O [Example 93, 6-[5-{[(Carboxymethyl)amino]carbonyl}-3-cyclohexyl-6-hydroxy-2,4-dioxo-3,4-dihydro-1(2 H)-pyrimidinyl]hexanoic acid] | > 100
4 | O=C(O)CNC(=O)c1c(O)n(-c2ccccc2[N+](=O)[O-])c(=O)n(Cc2ccccc2)c1=O [Example 9, N-{[6-Hydroxy-1-(2-nitrophenyl)-2,4-dioxo-3-(phenylmethyl)-1,2,3,4-tetrahydro-5-pyrimidinyl]carbonyl}glycine] | > 100
5 | CCOC(=O)CNC(=S)c1c(O)n(C2CCCCC2)c(=O)n(C2CCCCC2)c1=O [Example 91, Ethyl N-[(1,3-dicyclohexyl-6-hydroxy-2,4-dioxo-1,2,3,4-tetrahydro-5-pyrimidinyl)carbonothioyl]glycinate] | > 100
6 | O=C(O)CNC(=O)c1c(O)n(-c2ccccn2)c(=O)n(Cc2ccccc2)c1=O [Example 8, N-{[6-Hydroxy-2,4-dioxo-3-(phenylmethyl)-1-(2-pyridinyl)-1,2,3,4-tetrahydro-5-pyrimidinyl]carbonyl}glycine] | > 100
7 | O=C(O)CNC(=O)c1c(O)n(C2CCCCC2)c(=O)n(CCCN2CCOCC2)c1=O [Example 35, N-({1-Cyclohexyl-6-hydroxy-3-[3-(4-morpholinyl)propyl]-2,4-dioxo-1,2,3,4-tetrahydro-5-pyrimidinyl}carbonyl)glycine] | > 100
8 | O=C(O)CCCCCn1c(O)c(C(=S)NCC(=O)O)c(=O)n(C2CCCCC2)c1=O [Example 94, 6-[5-{[(Carboxymethyl)amino]carbonothioyl}-3-cyclohexyl-6-hydroxy-2,4-dioxo-3,4-dihydro-1(2 H)-pyrimidinyl]hexanoic acid] | > 100
9 | O=C(O)CNC(=O)c1c(O)n(-c2cccc3ccccc23)c(=O)n(C2CCCCC2)c1=O [Example 88, N-{[3-Cyclohexyl-6-hydroxy-1-(1-naphthalenyl)-2,4-dioxo-1,2,3,4-tetrahydro-5-pyrimidinyl]carbonyl}glycine] | > 100
